This note sets out measurements from PubChem BioAssay AID652047 (Broad Institute, 2013).

“And” between values parts separate entries of the source, which are not always exact repeats. Identical values can stand only once.

This assay has as its system P. falciparum 3D7 in RBCs, SYBR Green DNA fluorescence. Description: antimalarial activity against intraerythrocytic 3D7 parasites – 3D7 strain, red blood cells, SYBR Green, cherry-picked, dose response (AID 652047).

For the compound `C[C@@]12CCC3[C@@](CCC4[C@@]3(C)CCC[C@@]4(C)C(=O)NCc3ccccc3)(CC1=O)C2` (stereo partly drawn), the AC35 was 30.2 µM.
For `COc1ccc(N=N/C(=C\O)C(=O)c2cccs2)cc1`, the AC35 is 7.16 µM.
The same measure for `Oc1cccc2ccc(Nc3ccccn3)nc12`: 0.182 µM.
The same measure for `Cc1csc(NC(=O)C(C)Oc2ccc(Cl)cc2C)n1` (stereo not drawn): 38.3 µM; for `CC1(C)C=Cc2c(ccc3c2OC[C@@H](c2ccc(O)cc2O)C3)O1`: 17.8 µM.
The same measure for `O=C(Nc1nnc(-c2ccccc2)o1)c1ccc(Cl)cc1`: 12.4 µM; for `O=C1c2cc(F)ccc2-n2c1nc1ccccc1c2=O`: less than 0.0235 µM.
Take `C=CCc1ccc(O)c(-c2ccc(O)c(CC=C)c2)c1`: the AC35 was 15.8 µM.
For `CC(=O)Oc1ccc(OC(C)=O)c(SCCCCCCl)c1` the value was 4.82 µM.
For `CCC(C)Sc1cccc(-c2nc3ccccn3c2NCc2ccccc2)c1` (stereo not drawn) the value was 16.8 µM; for `COc1ccc(-c2cc(C(=O)N3CCN(c4ccccc4F)CC3)c3ccccc3n2)c(OC)c1`, 9.76 µM; for `C=CCN(CC=C)C(=S)NC(=O)c1ccc(C)c(Br)c1`, 6.98 µM.
The same measure for `S=C(NCc1ccco1)Nc1ccc(Oc2ccc(Cl)cc2)cc1`: 24 µM; for `CC1=CC(=O)C=C(C)C1=NOS(=O)(=O)c1ccccc1`: 17.4 µM.
For `Cn1ccc(=Nc2ccc(NC(=O)c3ccc(N=c4ccn(C)c5ccc([N+](=O)[O-])cc45)cc3)cc2)cc1`, the AC35 was 0.0417 µM.
The same measure for `Nc1cc2c3ccccc3ccc2c2ccccc12`: 1.01 µM.
For `Cc1ccc(Nc2cc(C)nn2-c2nc(C)cc(C)n2)cc1` the value was 2.38 µM.
The same measure for `COc1cc(NS(=O)(=O)c2ccc(C)cc2)c2ncccc2c1`: 6.47 µM.
For the compound `O=C(Nc1nnc(-c2cccs2)o1)c1cccc(Oc2ccccc2)c1`, the AC35 was 23 µM.
For `CC1(C(=O)OCC(=O)Nc2ccc3ccccc3c2)CC1(Cl)Cl` (stereo not drawn) the value was 42.6 µM; for `O=[N+]([O-])c1cccc(C=NNc2ccc3ccccc3n2)c1O`, 4.23 µM; for `CCCCNc1c(-c2cccc(Sc3ccc(OC)cc3)c2)nc2ccccn12`, 15.3 µM.
The same measure for `COc1cc(/C=N/O)cc(Br)c1OCc1cccc(Cl)c1`: 29.6 µM; for `O=C(NCC1CC1(Cl)Cl)Nc1ccc(Cl)c(Cl)c1` (stereo not drawn): 8.82 µM.
For `Cc1oc2c(c1C(=O)c1ccccc1)C(=O)C(=O)c1ccccc1-2` the value was 3.23 µM; for `O=C(NC(=S)N(CCc1ccccc1)CCc1ccccc1)c1ccco1`, 12 µM; for `O=C(CC1CC2CCC1C2)Nc1nc(-c2ccccn2)cs1` (stereo not drawn), 2.94 µM.
For `Cc1nn(CCC#N)c(N)c1C1(O)C(=O)Nc2c(Cl)cc(Cl)cc21` (stereo not drawn), the AC35 is 16 µM.
For `Oc1ccccc1-c1cc(-c2ccc3c(c2)OCCO3)n[nH]1` the value was 15.2 µM; for `CCCCCCCn1c(=O)c(C(=O)OC)c(N)c2ccccc21`, 13.6 µM; for `Cc1cccc(N2CCN(C(=O)C3COc4ccccc4O3)CC2)c1C` (stereo not drawn), 34.3 µM.
The same measure for `Oc1c(C(Nc2cccc(C(F)(F)F)c2)c2ccncc2)ccc2cccnc12` (stereo not drawn): 0.879 µM; for `CCCCNC(=S)N/N=C1\CCCCc2ccccc21`: 18.3 µM; for `Oc1ccc(/C=N/Nc2ccc(C(F)(F)F)cn2)c(O)c1`: 5.21 µM.
The same measure for `Cn1nc(C(F)(F)F)c(C#N)c1N1CCN(c2ccc(F)cc2)CC1`: 41.9 µM.
Consider `O=C(CSc1ccc(-c2ccccn2)nn1)c1ccccc1`, for which the AC35 was 20 µM.
The same measure for `CC1=CC(C)(C)N(S(=O)(=O)c2ccc(C)cc2)c2ccc(C)cc21`: 22.3 µM.
For `Cc1ccc(O)c(-c2cc(-c3ccccc3C)[nH]n2)c1` the value was 10.8 µM.
The same measure for `Cc1[nH]n(-c2ccccc2)c(=O)c1/C=N/Nc1nncc(-c2ccccc2)n1`: 1.2 µM; for `O=[N+]([O-])c1ccc(Sc2cccc[n+]2[O-])c2nonc12`: 0.657 µM.
`C=CCNc1nc(-c2ccccn2)nnc1-c1ccccc1`: the AC35 is 1.21 µM.
For the compound `CCn1c2ccc(C)cc2c2nc3cc(C(=O)O)ccc3nc21`, the AC35 was 42.6 µM.
Consider `CCc1cc(SC#N)cc(C)c1NC(=O)CCl`, for which the AC35 is 7.77 µM.
As to `Cc1nc2ccc(C(C(F)(F)F)(C(F)(F)F)C(F)(F)F)cc2[nH]1`, the AC35 is 17.8 µM.
For `COc1cccc(/C=N/NC(=O)c2nc(-c3ccccc3)cc(-c3ccccc3)n2)c1O` the value was 6.29 µM; for `COc1ccc(C(=O)On2c(-c3ccc(Br)cc3)nc3ccccc3c2=O)cc1`, 5.71 µM; for `CC(C)N1CCN(c2ccc(OCC3COC(Cn4cncn4)(c4ccc(Cl)cc4Cl)O3)cc2)CC1` (stereo not drawn), 3.77 µM.
For `CCCCCCCc1ccc(-c2ccc(O)cc2)nc1` the value was 7.43 µM; for `Oc1ccc(N=Nc2ccc3c(c2)OCCO3)c2cccnc12`, 0.706 µM; for `CCOC(=O)N1C(=O)C2(CCCCC2)N(c2ccccc2Cl)C1=S`, 12.8 µM.
The same measure for `COc1cccc(/C=N/Nc2ncnc(Cl)c2N)c1O`: 0.896 µM; for `O=C(COc1ccc([N+](=O)[O-])cc1)Nc1nc(-c2ccccn2)cs1`: 6.63 µM; for `CNc1ccc2oc(C[C@H]3O[C@@]4(CC[C@H]3C)O[C@H]([C@H](C)C(=O)c3ccc[nH]3)[C@H](C)C[C@H]4C)nc2c1C(=O)O`: 1.01 µM.
For the compound `S=C(Nc1ccc(Oc2ccccc2)cc1)NC1CCCCCC1`, the AC35 was 12.7 µM.
Take `CCC(=O)NC(c1ccco1)c1cc(Cl)c2cccnc2c1O` (stereo not drawn): the AC35 is 0.484 µM.
For `COc1cnc(-c2ccccn2)nc1Oc1ccc(C(C)(C)C)cc1` the value was 2.05 µM.
For `CCCCNc1c(-c2cccc(-c3ccc(OC)cc3)c2)nc2ccc(C)cn12` the value was 2 µM; for `COc1ccc(-c2oc3ccccc3c2C#Cc2cncn2C)cc1`, 0.603 µM.
For `O=C(CSc1ccc(-c2ccccn2)nn1)NCc1ccc(F)cc1` the value was 28.7 µM.
For the compound `CCC(C)n1ncn(-c2ccc(N3CCN(c4ccc(OCC5COC(Cn6cncn6)(c6ccc(Cl)cc6Cl)O5)cc4)CC3)cc2)c1=O` (stereo not drawn), the AC35 was 4.24 µM.
As to `O=C1c2ccccc2-n2c1nc1ccccc1c2=O`, the AC35 is 0.181 µM.
For `O=C(/C(=N/N=C/c1ccc(O)c(O)c1O)c1ccccc1)c1ccccc1` the value was 4.96 µM; for `CC(=O)NC(c1ccc(C)cc1)c1cc([N+](=O)[O-])c2cccnc2c1O` (stereo not drawn), 10.1 µM.
With `CCCC(C)Sc1nc2c([nH]1)c(=S)n(C)c(=O)n2C` (stereo not drawn), the AC35 is 4.74 µM.
As to `O=C(NCc1ccncc1)c1ccccc1Nc1ccc(SC(F)F)cc1`, the AC35 is 21.1 µM.
The same measure for `O=C(OCC(=O)C12CC3CC(CC(C3)C1)C2)c1ccc(O)cc1`: 44.4 µM.
The same measure for `CCCCC(=O)NC(=S)NNC(=O)CCc1ccccc1`: 20.8 µM; for `c1ccc(C(=NNc2nc3ccccc3s2)c2ccccn2)cc1`: 1.5 µM; for `COc1ccccc1-c1sc2cc3c(cc2c1C#Cc1cncn1C)OCO3`: 2.48 µM.
The same measure for `CC(C)C(=O)NC(c1ccco1)c1ccc2cccnc2c1O` (stereo not drawn): 2.02 µM.
As to `O=C1c2cccc(Cl)c2C(=O)c2c1cccc2N1CCCC1`, the AC35 is 22.7 µM.
The same measure for `Cc1ccc(O)c(C2=NNC(c3ccc(Cl)cc3)C2)c1` (stereo not drawn): 4.31 µM; for `O=S(=O)(Nc1ccccc1)c1ccc(Oc2ncc(C(F)(F)F)cc2Cl)cc1`: 28.7 µM.
The same measure for `Nc1cc2nc3ccccc3oc-2cc1=O`: 2.14 µM.
For `Oc1ccc(Br)cc1/C=N/Nc1ccccn1` the value was 2.68 µM; for `O=C(c1ccccc1)c1coc2c1C(=O)c1ccccc1C2=O`, 3.82 µM.
As for `CCCOc1ccc(S(=O)(=O)n2cc(F)c(=O)[nH]c2=O)cc1`, the AC35 was 30.4 µM.
For `CC[n+]1c(/C=C/C=C/c2ccc(N(C)C)cc2)sc2ccccc21` the value was 6.28 µM; for `CC(NC(=S)NC1CCC(C(C)(C)C)CC1)c1ccccc1` (stereo not drawn), 10.2 µM.
For the compound `Cc1ccc(Sc2ccc(NC(=O)CCl)cc2)cc1C`, the AC35 was 0.422 µM.
The same measure for `Cc1ccc(NS(=O)(=O)c2ccc(N3CCN(c4ccc(O)cc4)CC3)c([N+](=O)[O-])c2)c(C)c1`: 17.2 µM; for `COc1ccc2[nH]c(=O)c(CN(Cc3cccnc3)C(=O)Nc3ccccc3)cc2c1`: 17.5 µM.
For `CC(C)(C)C(O)C(Cc1ccccc1Cl)n1cncn1` (stereo not drawn) the value was 25.7 µM; for `O=C(COc1ccccc1F)Nc1nc(-c2ccccn2)cs1`, 10.5 µM.
In the case of `O=C(Nc1cc(Oc2ccc(Cl)cc2)cc([N+](=O)[O-])c1)c1ccco1`, the AC35 is 6.1 µM.
The same measure for `CCOC(=O)c1cc2c(=Cc3ccc(N(C)C)cc3)c3ccccc3n2[n+]1C`: 1.94 µM; for `Clc1ccc(COC(Cn2ccnc2)c2ccc(Cl)cc2Cl)c(Cl)c1` (stereo not drawn): 1.2 µM and 1.52 µM.
The same measure for `OCCN(CCO)c1cc2c3ccccc3ccc2c2ccccc12`: 1.69 µM.
For `O=CC1=C(c2ccccc2)Oc2ccccc2O1` the value was 8.24 µM; for `CN(Cc1ccc(Cl)s1)C(=O)CCl`, 1.69 µM.
Take `Cc1nc(SCc2ccc(OCCC(C)C)cc2)n[nH]1`: the AC35 was 16.5 µM.
In the case of `CCOC(=O)c1ccc(NC(=S)N(Cc2cccnc2)Cc2ccco2)cc1`, the AC35 is 21.7 µM.
The same measure for `CC(C)(C)n1nc(Cc2cccc3ccccc23)c2c(N)ncnc21`: 25.7 µM; for `CCCn1nc(C(=O)N2CCN(S(=O)(=O)c3ccc(C)c(C)c3)CC2)c2ccccc2c1=O`: 11.7 µM; for `O=c1cc(CSc2ccc(Cl)cc2)nc(-c2ccccn2)[nH]1`: 1.93 µM.
The same measure for `CC(C)=CCc1c(O)ccc(C(=O)Cc2ccccc2)c1O`: 16.4 µM; for `Cc1cc(Cl)ccc1C(=O)C1CCCN(C(=O)c2cncs2)C1` (stereo not drawn): 26 µM.
For `Clc1ccc(C(Cn2ccnc2)OCc2c(Cl)cccc2Cl)c(Cl)c1` (stereo not drawn), the AC35 is 2.76 µM.
With `O/N=C(\c1ccc(Cl)cc1Cl)c1ncc(C(F)(F)F)cc1Cl`, the AC35 was 16.9 µM.
For `CCCCCOc1ccc(CSc2n[nH]c(C)n2)cc1` the value was 18.6 µM; for `O=C(CCCSc1ccccc1)Nc1nc(-c2ccccn2)cs1`, 6.69 µM.
On to `CCCCC(=O)NC(c1ccco1)c1cc(Cl)c2cccnc2c1O` (stereo not drawn), for which the AC35 was 1.48 µM.
For `Cc1ccsc1/C=C/c1ccc2cccc(O)c2n1` the value was 14.2 µM.
